Data on 36 compounds can be found in patent publication US20240246946A1, “MODULATORS OF TREX1” (Constellation Pharmaceuticals, Inc., priority 2021, published 2024).

Where two headings read alike, the source gives them in different places. Bounds are passed on as bounds.

One assay has as its target T1, full length mouse TREX1 (Mus musculus, UniProt Q91XB0).
T1 construct: N-terminally His-Tev tagged full length mouse TREX1; made in house; host or cells: E. coli
T1 sequence (Q91XB0 1-314): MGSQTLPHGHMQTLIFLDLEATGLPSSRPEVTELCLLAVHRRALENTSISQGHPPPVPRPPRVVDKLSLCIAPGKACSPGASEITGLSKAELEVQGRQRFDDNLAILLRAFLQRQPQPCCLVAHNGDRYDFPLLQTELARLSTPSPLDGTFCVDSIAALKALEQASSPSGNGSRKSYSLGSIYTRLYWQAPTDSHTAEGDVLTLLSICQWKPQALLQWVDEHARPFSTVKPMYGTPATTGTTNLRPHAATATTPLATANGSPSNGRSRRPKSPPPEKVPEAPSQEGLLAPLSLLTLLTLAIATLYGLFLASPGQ
Nature of the assay: mTREX1 Biochemical Assay (fluorescence, dsDNA substrate degradation). In a few lines:
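Reaction run 18 h at 25° C. with 60 nM TEX615/quencher-labelled dsDNA and 6 pM mouse TREX1 in Tris buffer (pH 7.4, 5 mM MgCl2, 1.0% DMSO), enzyme having sat 4 h with compound across 10 concentrations. EDTA quench; substrate degradation measured as fluorescence increase.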

The target in another assay is T2, full length human TREX1 (Homo sapiens, UniProt Q9NSU2).
T2 construct: N-terminally His-Tev tagged full length human TREX1; made in house; host or cells: E. coli
T2 sequence (Q9NSU2 1-314): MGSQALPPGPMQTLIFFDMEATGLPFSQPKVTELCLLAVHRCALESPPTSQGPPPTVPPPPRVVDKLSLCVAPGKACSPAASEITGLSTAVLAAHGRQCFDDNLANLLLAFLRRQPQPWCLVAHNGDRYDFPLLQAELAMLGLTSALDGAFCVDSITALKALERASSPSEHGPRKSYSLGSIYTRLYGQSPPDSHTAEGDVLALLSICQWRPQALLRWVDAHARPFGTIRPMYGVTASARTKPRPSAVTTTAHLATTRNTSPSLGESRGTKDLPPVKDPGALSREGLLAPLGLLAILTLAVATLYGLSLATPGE
Nature of the assay: hTREX1 Biochemical Assay (fluorescence, dsDNA substrate degradation). In short, it runs like this: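 Cleavage of 60 nM TEX615/quencher-labelled dsDNA in pH 7.4 Tris buffer with 5 mM MgCl2, 1.0% DMSO, run 18 hours at 25° C, EDTA-quenched; fluorescence read-out.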

The mark [1] stands for this setting: biochemical, read-out: mTREX1 IC50.
Where [2] appears, read: biochemical, read-out: hTREX1 IC50.

For `Cc1cncc(C(c2ccccc2C#N)C(C)c2nc(C(=O)Nc3cnoc3)c(O)c(=O)n2C)n1` (single isomer, unassigned) [Example 53 D2E2], the IC50 on full length mouse TREX1 (setting [1]) and at full length human TREX1 (setting [2]) was more than 10 nM throughout.
As to `Cc1ccnn1C(c1ccccc1Cl)C(C)c1nc(C(=O)Nc2cnoc2)c(O)c(=O)n1C` (single isomer, unassigned) [Example 54 D1E1], the IC50 against full length mouse TREX1 (mTREX1 IC50, biochemical) is 1 to 10 nM; at full length human TREX1 (hTREX1 IC50, biochemical) it was 1 to 10 nM.
Regarding `Cc1ccnn1C(c1ccccc1Cl)C(C)c1nc(C(=O)Nc2cnoc2)c(O)c(=O)n1C` (single isomer, unassigned) [Example 54 D1E2], the IC50 on full length mouse TREX1 (mTREX1 IC50, biochemical) is more than 10 nM; on full length human TREX1 (hTREX1 IC50, biochemical), more than 10 nM.
Regarding `CCn1cc(C(c2ccc(F)cc2C#N)C(C)c2nc(C(=O)Nc3cnoc3)c(O)c(=O)n2C)c(C)n1` (single isomer, unassigned) [Example 55 D1E2], the IC50 on full length mouse TREX1 (setting [1]) and at full length human TREX1 (setting [2]) was more than 10 nM throughout.
Consider `Cc1nn(C)cc1C(c1ccc(F)cc1C#N)C(C)c1nc(C(=O)Nc2cnoc2)c(O)c(=O)n1C` (single isomer, unassigned) [Example 56 D1E2], for which the concentration for half-maximal inhibition (IC50) on full length mouse TREX1 (setting [1]) and at full length human TREX1 (setting [2]) was more than 10 nM in each case.
Take `Cc1nn(C)cc1C(c1ccc(F)cc1C#N)C(C)c1nc(C(=O)Nc2cnoc2)c(O)c(=O)n1C` (single isomer, unassigned) [Example 56 D2E1]: the 50% inhibitory concentration (IC50) was more than 10 nM on full length mouse TREX1 (setting [1]) and 1 to 10 nM on full length human TREX1 (setting [2]).
As to `Cc1nn(C)cc1C(c1ccc(F)cc1C#N)C(C)c1nc(C(=O)Nc2cnoc2)c(O)c(=O)n1C` (single isomer, unassigned) [Example 56 D2E2], the IC50 on full length mouse TREX1 (setting [1]) and at full length human TREX1 (setting [2]) was more than 10 nM each time.
Consider `Cc1nn(C)cc1C(c1cc(F)ccc1C#N)C(C)c1nc(C(=O)Nc2cnoc2)c(O)c(=O)n1C` (single isomer, unassigned) [Example 57 D2E2], for which the IC50 at full length mouse TREX1 (setting [1]) and on full length human TREX1 (setting [2]) was more than 10 nM each time.
With `CC(c1nc(C(=O)Nc2cnoc2)c(O)c(=O)n1C)C(c1cnn(C)c1)c1cc(F)ccc1Cl` (single isomer, unassigned) [Example 61 D1E2], the IC50 on full length mouse TREX1 (setting [1]) and on full length human TREX1 (setting [2]) was more than 10 nM throughout.
In the case of `CC(c1nc(C(=O)Nc2cnoc2)c(O)c(=O)n1C)C(c1cnn(C)c1)c1cc(F)ccc1Cl` (single isomer, unassigned) [Example 61 D2E1], the IC50 on full length mouse TREX1 (setting [1]) and on full length human TREX1 (setting [2]) was more than 10 nM in each case.
Take `CC(c1nc(C(=O)Nc2cnoc2)c(O)c(=O)n1C)C(c1cnn(C)c1)c1cc(F)ccc1Cl` (single isomer, unassigned) [Example 61 D2E2]: the IC50 on full length mouse TREX1 (setting [1]) and at full length human TREX1 (setting [2]) was more than 10 nM each time.
Take `Cc1nn(C)cc1C(c1cc(F)ccc1Cl)C(C)c1nc(C(=O)Nc2cnoc2)c(O)c(=O)n1C` (single isomer, unassigned) [Example 62 D1E1]: the IC50 at full length mouse TREX1 (setting [1]) and on full length human TREX1 (setting [2]) was more than 10 nM throughout.
For the compound `Cc1nn(C)cc1C(c1cc(F)ccc1Cl)C(C)c1nc(C(=O)Nc2cnoc2)c(O)c(=O)n1C` (single isomer, unassigned) [Example 62 D1E2], the IC50 on full length mouse TREX1 (setting [1]) and at full length human TREX1 (setting [2]) was more than 10 nM in each case.
For `Cc1nn(C)cc1C(c1cc(F)ccc1Cl)C(C)c1nc(C(=O)Nc2cnoc2)c(O)c(=O)n1C` (single isomer, unassigned) [Example 62 D2E1], the concentration for half-maximal inhibition (IC50) at full length mouse TREX1 (setting [1]) and on full length human TREX1 (setting [2]) was more than 10 nM each time.
Turning to `Cc1cc(C(c2ccccc2C#N)C(C)c2nc(C(=O)Nc3cnoc3)c(O)c(=O)n2C)n(C)n1` (single isomer, unassigned) [Example 63 D2E1], the 50% inhibitory concentration (IC50) at full length mouse TREX1 (setting [1]) and on full length human TREX1 (setting [2]) was more than 10 nM throughout.
For `Cc1cc(C(c2ccccc2C#N)C(C)c2nc(C(=O)Nc3cnoc3)c(O)c(=O)n2C)n(C)n1` (single isomer, unassigned) [Example 63 D2E2], the IC50 at full length mouse TREX1 (setting [1]) and on full length human TREX1 (setting [2]) was more than 10 nM in each case.
Consider `Cc1cn(C)nc1C(c1ccccc1C#N)C(C)c1nc(C(=O)Nc2cnoc2)c(O)c(=O)n1C` (single isomer, unassigned) [Example 64 D1E1], for which the IC50 at full length mouse TREX1 (setting [1]) was more than 10 nM; at full length human TREX1 (setting [2]), less than 1 nM.
Consider `Cc1cn(C)nc1C(c1ccccc1C#N)C(C)c1nc(C(=O)Nc2cnoc2)c(O)c(=O)n1C` (single isomer, unassigned) [Example 64 D1E2], for which the IC50 at full length mouse TREX1 (setting [1]) and on full length human TREX1 (setting [2]) was more than 10 nM in each case.
On to `Cc1cn(C)nc1C(c1ccccc1C#N)C(C)c1nc(C(=O)Nc2cnoc2)c(O)c(=O)n1C` (single isomer, unassigned) [Example 64 D2E2], for which the IC50 on full length mouse TREX1 (setting [1]) and at full length human TREX1 (setting [2]) was more than 10 nM in each case.
On to `CCn1ncc(C(c2ccc(F)cc2C#N)C(C)c2nc(C(=O)Nc3cnoc3)c(O)c(=O)n2C)c1C` (single isomer, unassigned) [Example 65 D1E2], for which the IC50 at full length mouse TREX1 (setting [1]) and at full length human TREX1 (setting [2]) was more than 10 nM in each case.
For `CCn1ncc(C(c2ccc(F)cc2C#N)C(C)c2nc(C(=O)Nc3cnoc3)c(O)c(=O)n2C)c1C` (single isomer, unassigned) [Example 65 D2E2], the IC50 on full length mouse TREX1 (setting [1]) is more than 10 nM; on full length human TREX1 (setting [2]), less than 1 nM.
`CC(c1nc(C(=O)Nc2cnoc2)c(O)c(=O)n1C)C(c1cnccn1)c1ccccc1C#N` (single isomer, unassigned) [Example 66 D1E2]: the figures for the IC50 on full length mouse TREX1 (setting [1]) and at full length human TREX1 (setting [2]) were more than 10 nM and 1 to 10 nM, respectively.
`CC(c1nc(C(=O)Nc2cnoc2)c(O)c(=O)n1C)C(c1cnccn1)c1ccccc1C#N` (single isomer, unassigned) [Example 66 D2E1]: the results for the IC50 on full length mouse TREX1 (setting [1]) and at full length human TREX1 (setting [2]) were more than 10 nM and 1 to 10 nM, respectively.
The matching figures for `CC(c1nc(C(=O)Nc2cnoc2)c(O)c(=O)n1C)C(c1cnccn1)c1ccccc1C#N` (single isomer, unassigned) [Example 66 D2E2]: more than 10 nM and more than 10 nM.
The matching figures for `CCn1ncc(C(c2ccccc2C#N)C(C)c2nc(C(=O)Nc3cnoc3)c(O)c(=O)n2C)c1C` (single isomer, unassigned) [Example 68 D1E2]: more than 10 nM and more than 10 nM.
On to `CCn1ncc(C(c2ccccc2C#N)C(C)c2nc(C(=O)Nc3cnoc3)c(O)c(=O)n2C)c1C` (single isomer, unassigned) [Example 68 D2E2], for which the IC50 at full length mouse TREX1 (setting [1]) and on full length human TREX1 (setting [2]) was more than 10 nM in each case.
`COCCn1ncc(C(c2ccccc2C#N)C(C)c2nc(C(=O)Nc3cnoc3)c(O)c(=O)n2C)c1C` (single isomer, unassigned) [Example 69 D1E2]: the IC50 at full length mouse TREX1 (setting [1]) and at full length human TREX1 (setting [2]) was more than 10 nM each time.
For `COCCn1ncc(C(c2ccccc2C#N)C(C)c2nc(C(=O)Nc3cnoc3)c(O)c(=O)n2C)c1C` (single isomer, unassigned) [Example 69 D2E1], the IC50 on full length mouse TREX1 (setting [1]) and on full length human TREX1 (setting [2]) was more than 10 nM each time.
Regarding `CCn1cc(C(c2ccccc2C#N)C(C)c2nc(C(=O)Nc3cnoc3)c(O)c(=O)n2C)c(C)n1` (single isomer, unassigned) [Example 70 D1E2], the IC50 on full length mouse TREX1 (setting [1]) and on full length human TREX1 (setting [2]) was more than 10 nM each time.
As to `CCn1cc(C(c2ccccc2C#N)C(C)c2nc(C(=O)Nc3cnoc3)c(O)c(=O)n2C)c(C)n1` (single isomer, unassigned) [Example 70 D2E1], the IC50 at full length mouse TREX1 (setting [1]) is more than 10 nM; at full length human TREX1 (setting [2]) it was 1 to 10 nM.
As for `CCn1cc(C(c2ccccc2C#N)C(C)c2nc(C(=O)Nc3cnoc3)c(O)c(=O)n2C)c(C)n1` (single isomer, unassigned) [Example 70 D2E2], the IC50 on full length mouse TREX1 (setting [1]) and on full length human TREX1 (setting [2]) was more than 10 nM each time.
As to `COCCn1cc(C(c2ccccc2C#N)C(C)c2nc(C(=O)Nc3cnoc3)c(O)c(=O)n2C)c(C)n1` (single isomer, unassigned) [Example 71 D1E2], the IC50 at full length mouse TREX1 (setting [1]) and at full length human TREX1 (setting [2]) was more than 10 nM in each case.
On to `COCCn1cc(C(c2ccccc2C#N)C(C)c2nc(C(=O)Nc3cnoc3)c(O)c(=O)n2C)c(C)n1` (single isomer, unassigned) [Example 71 D2E1], for which the IC50 on full length mouse TREX1 (setting [1]) and on full length human TREX1 (setting [2]) was more than 10 nM in each case.
With `COCCn1cc(C(c2ccccc2C#N)C(C)c2nc(C(=O)Nc3cnoc3)c(O)c(=O)n2C)c(C)n1` (single isomer, unassigned) [Example 71 D2E2], the IC50 at full length mouse TREX1 (setting [1]) and on full length human TREX1 (setting [2]) was more than 10 nM throughout.
With `CCn1cc(C(c2cc(F)c(F)cc2Cl)C(C)c2nc(C(=O)Nc3cnoc3)c(O)c(=O)n2C)cn1` (single isomer, unassigned) [Example 72 D1E1], the IC50 on full length mouse TREX1 (setting [1]) is 1 to 10 nM; on full length human TREX1 (setting [2]), less than 1 nM.
The matching figures for `CCn1cc(C(c2cc(F)c(F)cc2Cl)C(C)c2nc(C(=O)Nc3cnoc3)c(O)c(=O)n2C)cn1` (single isomer, unassigned) [Example 72 D1E2]: more than 10 nM and more than 10 nM.
